Assay results from patent US6455593B1, “Method of dynamic retardation of cell cycle kinetics to potentiate cell damage” (priority 1995, dated 2002).
Read-outs that look alike come from different tables or passages of the source.

Tests used:
Daudi cells = assay: MIS MTT growth inhibition assay; assay type: cell-based, human
Excerpt: (§1) A dye, 3-[4,5-dimethylthiazol-2-yl]-2,5-diphenyl-tetrazolium bromide (MTT), was used as a chromogenic indicator of the metabolically active cell mass. Viable cells metabolize the dye and accumulate a reduced formazan product (blue color) which is solubilized for colorimetry. Mossman T, J. Immunol. Methods 5:55-63 (1983); Li L and Lau B H S, In Vitro Cell Dev. Biol. 29A:531-536 (1993). The MTT assay has been established as useful for measuring either growth inhibition or population killing. Plowman, supra. The MTT method is ideal for cells tested in suspension growth, and can also be used for some cells growing in monolayers. […] Alley, supra; Hofs, supra; Wilson J K et al., Br. J. Cancer 62:189-94 (1990); Plowman, supra.
(§2) Thirty μl of 0.5% MTT in phosphate buffered saline was added to each microculture well at the appropriate time. After incubation at 37° C. for 3 hr, 120 μl of an aqueous solution of 10 % SDS with 0.01 N HCl was added to release and dissolve formazan product. This was accomplished by overnight incubation of the plate at 37° C. After careful mixing of the microwell contents by placing the plates on an orbital shaker for 5 minutes the absorbencies were quantitated by spectrophotometry at 570 nm with a Ceres UV 900 HDI microwell plate reader (from Biotek Instruments Inc, Winooski, Vt. 05404-0998). Absorbance data was normalized to a blank well containing all reagents without cells and was collected semi-automatically.
(§3) Flat-bottom 96-well plates of tissue culture quality (Corning or Costar) were set up with two-fold serial dilutions of each agent to be tested, e.g., the RA and TCI, using a multichannel pipettor with adjustable volume, e.g., Costar or Rainin, to perform serial mixing. This set-up is diagrammed in FIG. 12. […] In each plate, a total of 59 wells then contained bivariate agent combinations, the bivariate serial dilutions.

[1] = tested on: human malignant lymphoma cells (U937); assay: Tumorigenic assay in athymic nude mice; assay type: in vivo; details: U937 cells treated with dThd 0.2 mM for 4 hr followed by STSP 25 nM for 7 hr before subcutaneous inoculation; 14 days
Excerpt: The biologic behavior of xenografts of human malignant cells in immunosuppressed mice can approximate natural growth conditions in a patient, since the cells receive a local supply of plasma nutrients and can survive for several weeks. Thus, inoculated cells may survive in a latent state prior to growth, a condition not readily duplicated in vitro. Inoculum size is critical for observation of tumor growth within a practical time frame. […] After treatment, cells were sedimented and resuspended in serum-free RPMI 1640. In each group four athymic Nu/Nu weanling mice of mean weight 17 gm were inoculated subcutaneously into both subscapular regions with 0.1 ml of RPMI 1640 containing 10^7 cells (viability>90%). Formation of tumors in these subcutaneous sites was observed during the next 14 days. One control mouse died prematurely. At 14 days, all animals were sacrificed, tumors were photographed, tumors were carefully dissected, and tumor weights were recorded. Tumors were verified histologically.

U937 cells [2] = assay: Pilot test of enhancement of gamma radiation damage; assay type: cell-based, human; details: STSP as RA, approximately 25 nM, pilot data
Description: Serial two-fold changes in calibrated radioactive dosages are combined with two-fold serial dilutions of an agent being tested as an RA or a TCI.

U937 cells [3] = assay: MIS LDH release assay (CytoTox96); assay type: cell-based, human; details: STSP for 14 H, total 18 H, STSP nM: 100,50,25,13,6,3, r16 dThd alone
Description: The MIS set up was identical to that described in Example 8. The relative activity of LDH released into supernatant from each microculture well was detected by a coupled enzymatic assay, Decker et al., J. Immunol. Methods 15:61 (1988), in which the chromogen 2-(p-iodophenyl)-3-(p-nitrophenyl)-5-phenyl tetrazolium chloride (INT) is converted to a red INT-formazan product by NADH in the presence of diaphorase.
In this procedure, after incubation and at the time for assay, 50 μl of fresh medium was added to each microculture well prior to assay and microcultures in the entire 96 well plate were simultaneously sedimented at 400×G for 10 min in a Becton Dickinson refrigerated table top centrifuge using a plate carrier. A 50 μl sample from each microwell then was removed carefully and transferred to a corresponding well in a clean 96 well plate. LDH activity was quantitated by means of the CytoTox96 assay, Promega Corp., Madison, Wis. 53711, according to the manufacturers instructions. In tests to determine the total LDH in each microwell, 10 μl of lysing reagent (from the CytoTox96 assay kit) was added to the fixed 100 μl volume with cells and medium prior to the above step. […].
These formulas use […] in which positive numbers are obtained as compared to % inhibition used above. […] Particularly for the latter purpose, all of the cells in each microculture well were totally lysed with Promega lysing reagent prior to the calorimetric measurement.

HL-60 cells = assay: MIS MTT growth inhibition assay; assay type: cell-based, human
Excerpt: as §1, §2, §3

[4] = tested on: p34^cdc2, c-myc, JNK, Erk-2; assay: Immunoblot and kinase activity assays (CDC2, c-myc, MAP kinases); assay type: cell-based, human; details: U937, STSP ±dThd or dThd alone
Description: The cyclin-dependent kinase p34^cdc2 was detected with antibody clone #1 from Signal Transduction Laboratories. For detection of histone phosphorylation activity p34^cdc2 was immunoprecipitated with monoclonal antibody (Santa Cruz, #17) using protein A sepharose and reacted with H1 substrate (Boehringer Mannheim) in the presence of γ^32P-ATP Aersham). […] MAP kinases were detected by immnunoblotting with monoclonal antibodies from Pharmingen (San Diego, Calif.). For assay of enzymatic activities, MAP kinases were immunoprecipitated as above with polyclonal antibody to erk2 or with a GST-JNK substrate for JNK. The substrate for erk2 was myelin basic protein substrate and for JNK was GST-JNK (Pharmingen). The protooncogene product c-myc was detected by immunoblotting with an antibody from Oncogene Sciences.

pRb = assay: Immunoblot of pRb phosphorylation status; assay type: cell-based, human
Description: Whole cell extracts (U937 cells) were prepared in an SDS 2×sample buffer (100 mM Tris.HCl (pH 6.8), 200 mM DTT and 4% sodium dodecyl sulfate) and boiled for 5 minutes. Protein concentrations were assayed, and samples of 100 μg of protein per lane were applied to 7.5% SDS-polyacrylamide gels (PAGE). Resolved proteins were transferred to Immobilon P (Millipore), and pRb was localized with monoclonal anti-pRb (Santa Cruz, IF8) and a chemiluminescence procedure (Amersham ECL). Samples for flow cytometry were prepared and flow cytometry was performed as described in Example 2.

[5] = Homo sapiens, 4 h, read-out: MTT % inhibition, Aph only
[6] = Homo sapiens, HL-60, 2 h, dThd […] 2 H, STSP 0, read-out: MTT % inhibition, dThd only

C[C@@]1(CO)[C@H](O)CC[C@@]2(C)[C@H]1CC[C@H]1C[C@@H]3C[C@@]12CC[C@]3(O)CO [Aph, aphidicolin] was tested, and the “combined results ratio, Aph only (baseline line)” value (Daudi cells; Aph alone, every Aph concentration 8.00-0.02 ug/ml) was 1.0, the inhibition at 0.02 µg/mL (Daudi cells; [5]) was 0% and the inhibition at 0.03 µg/mL (Daudi cells; [5]) was 1%. It also gave an inhibition at 0.06 µg/mL (Daudi cells; [5]) of 4%, an inhibition at 0.5 µg/mL (Daudi cells; [5]) of 8% and an inhibition at 1 µg/mL (Daudi cells; [5]) of 8%. For the same molecule, the inhibition at 2 µg/mL (Daudi cells; [5]) was 9%, the inhibition at 4 µg/mL (Daudi cells; [5]) was 16% and the inhibition at 8 µg/mL (Daudi cells; [5]) was 28%.

For CN[C@@H]1C[C@H]2O[C@@](C)([C@@H]1OC)n1c3ccccc3c3c4c(c5c6ccccc6n2c5c31)C(=O)NC4 [STSP, staurosporine], the Tumor formation [1] was “developed no tumors” and the “Effect on gamma radiation damage” value (U937 cells [2]) was “an enhancing effect upon damage produced by a single exposure of the U937 cells to 2.5 to 10 Gy of gamma radiation”.

With Cc1cn([C@H]2C[C@H](O)[C@@H](CO)O2)c(=O)[nH]c1=O [dThd, deoxythymidine] the “LDH release multiple, dThd 0.02 mM” value (U937 cells [3]; dThd 0.02 mM for 4 H) was 1.20, the “LDH release multiple, dThd 0.06 mM” value (U937 cells [3]; dThd 0.06 mM for 4 H) was 1.14 and the “LDH release multiple, dThd 0.09 mM” value (U937 cells [3]; dThd 0.09 mM for 4 H) was 1.19. The “LDH release multiple, dThd 3.0 mM” value (U937 cells [3]; dThd 3.0 mM for 4 H) was 3.61, the inhibition at 10 µM (HL-60 cells; Homo sapiens, HL-60, 2 h, dThd 0.01 mM 2 H, STSP 0, read-out: MTT % inhibition, dThd only) was 2% and the inhibition at 10 µM (HL-60 cells; Homo sapiens, HL-60, 2 h, dThd 0.01 mM (column 8, lowest) 2 H, STSP 0, read-out: MTT % inhibition, dThd only) was 5%. It also gave an inhibition at 20 µM (HL-60 cells; Homo sapiens, HL-60, 2 h, dThd 0.02 mM 2 H, STSP 0, read-out: MTT % inhibition, dThd only) of 7%, an inhibition at 50 µM (HL-60 cells; Homo sapiens, HL-60, 2 h, dThd 0.05 mM 2 H, STSP 0, read-out: MTT % inhibition, dThd only) of 10% and an inhibition at 90 µM (HL-60 cells; Homo sapiens, HL-60, 2 h, dThd 0.09 mM 2 H, STSP 0, read-out: MTT % inhibition, dThd only) of 13%. It also gave an inhibition at 3000 µM (HL-60 cells; Homo sapiens, HL-60, 2 h, dThd 3.00 mM 2 H, STSP 0, read-out: MTT % inhibition, dThd only) of 59%, an inhibition at 190 µM (HL-60 cells; [6]) of 20% and an inhibition at 380 µM (HL-60 cells; [6]) of 28%. The inhibition at 750 µM (HL-60 cells; [6]) was 40%, the inhibition at 1500 µM (HL-60 cells; [6]) was 49% and the “combined results ratio, dThd only (baseline line)” value (HL-60 cells; dThd alone, dThd 3.00-0.09 mM) was 1.0. For the same molecule, the “Phosphorylation of CDC2” value [4] was “not by dThd alone”, the pRb phosphorylation (pRb; 0.2 mM dThd) was “did not appear to be grossly inhibited” and the pRb phosphorylation (pRb; 3 mM dThd, 4 or 11 hours) was “pRb phosphorylation was inhibited”.
